The values below come from patent US20200022970A1, “APPLICATION OF LEVOROTATORY TETRAHYDROPALMATINE TO THE TREATMENT OF DEPRESSION DISORDERS, BIPOLAR AND RELATED DISORDERS, MANIC EPISODES AND ANXIETY DISORDERS” (priority 2018, published 2020).

The test system of series [1] is mice. The note with it: oral administration; cited from earlier work.
The test system of series [2] is Male ICR mice. The series can be described thus: Elevated plus-maze test. It is filed as in vivo. The note with it: for time spent in the open arms (anxiolytic effect): 45 minutes prior, 5-minute test; for anxiolysis (time spent in open arms): p<0.001. The method, then:
Elevated plus-maze test. Naive male ICR mice 4 to 6 weeks of age were randomly separated into groups (n=15-20/group). Vehicle (0.9% NaCl), 0.01, 0.05, 0.1, 0.5, 1, 2 and 2.5 mg/kg dl-THP or l-THP, or 1 or 3 mg/kg diazepam was orally administered 45 minutes prior to experiment. The test apparatus consisted of four arms, 25 cm×5 cm each, extended from a center platform of 5 cm×5 cm in the shape of a plus sign. Two of the opposite arms were enclosed by 20 cm opaque high walls, making up the closed arms. The plus maze was elevated 40 cm off the ground. Each mouse was placed onto the center of the maze with head facing an open arm. The frequency and time spent in the open and closed arms were recorded for a period of 5 minutes. An arm entry was recorded when all four paws were inside the arm. Increased number of open-arm entries and percentage of time spent in them are indicative of an anxiolytic effect on the mice (Kalueff and Tuohimaa, 2004; Treit et al., 1993). In addition, the number of closed-arm entries provided an index of locomotor activity (Boguszewski and Zagrodzka, 2002). […] The first group received vehicle (p.o.) 45 minutes prior to test and flumazenil (1.25 mg/kg i.p) 15 minutes prior to test, the second group received l-THP (1.0 mg/kg, p.o) 45 minutes prior to test and vehicle (i.p) 15 minutes prior to test, and the third group received l-THP (1.0 mg/kg p.o) 45 minutes prior to test and flumazenil (1.25 mg/kg i.p) 15 minutes prior to test.

The subject of series [3] is Male ICR mice. Nature of the series: Tail suspension test. Type of series: in vivo. Conditions: for influence of flumazenil on antidepressant effect (immobility time): 2.0 mg/kg p.o. 45 minutes prior plus flumazenil 1.25 mg/kg i.p. 15 minutes prior; for oral dose that significantly shortens immobility time (antidepressant effect): 45 minutes prior to testing (imipramine 30 minutes), immobility scored from 2 to 6 min. The method, then:
Tail suspension test. Male ICR mice 4 to 6 weeks of age were randomized into groups (n=12-20/group). Vehicle (0.9% NaCl), or one of oral l-THP, dl-THP and d-THP (0.1-5.0 mg/kg) was administered 45 minutes prior to testing; or 30 mg/kg oral imipramine was administered 30 minutes prior to testing. In the test, a mouse was taped to a bar by the tail and suspended 15 cm above ground for 6 minutes. The total time of immobility was scored manually from 2 to 6 min during the period of suspension. Decreased time of immobility is indicative of antidepressant effect (Stem et al, 1985). To test whether the antidepressant effect elicited by l-THP or dl-THP can be blocked by the benzodiazepine (BZ) binding site antagonist flumazenil, naïve male 4-6 week old mice were randomly separated into three groups (n=12-20/group). The first group received vehicle (p.o.) 45 minutes prior to test and flumazenil (1.25 mg/kg i.p) 15 minutes prior to test, the second group received l-THP (2.0 mg/kg, p.o) or dl-THP (2.0 mg/kg, p.o.) 45 minutes prior to test and vehicle (i.p) 15 minutes prior to test, and the third group received l-THP (2.0 mg/kg p.o) or dl-THP (2.0 mg/kg p.o) 45 minutes prior to test and flumazenil (1.25 mg/kg i.p) 15 minutes prior to experiment.

In series [4] the test system is Male ICR mice. The series can be described thus: Locomotor activity side effect test (crossings of infrared beams). Type of series: in vivo. Conditions: 3 mg/kg, 45 minutes prior; p<0.05. The method, then: Manic-like behavior was induced accomplished using the method of Pathak et al. (2015). Male ICR mice of 6 to 7 week were given daily injection of 1.8 mg/kg d-amphetamine (amphetamine-sensitized mice) or vehicle (0.9% NaCl vehicle treated, viz. mice unsensitized by amphetamine) for 5 days. Amphetamine was then withdrawn for 7 days. The locomotor activity test ‘ZIL-2’ apparatus (Beijing Institute of Materia Medica) employed consisted of a transparent plastic cylinder of 20 cm diameter×12 cm height equipped with six evenly spaced sets of infrared beam-photocell. The number of transitions made by the mouse across the beams as detected by the photocells was recorded automatically over a period of 5 minutes. The level of locomotor activity was scored by the number beam-crossings made by the mouse. In the test, amphetamine sensitized mice were randomly separated into groups (m=12-20 per group). The Amp group of mice received 0.9 mg/kg amphetamine injection 10 minutes prior to testing. […]
Male ICR mice of 4 to 6 weeks were randomly separated into groups (n=15-20 per group). […] Locomotor activity was measured based on crossings of infrared beams. […] Myorelaxant activity was measured using the horizontal wire test. […] For each mouse, the number of falls in 60 seconds was recorded.

Series [5] has as its system Male ICR mice. Nature of the series: Horizontal wire test (myorelaxant effect). It is filed as in vivo. The method, then: Male ICR mice of 4 to 6 weeks were randomly separated into groups (n=15-20 per group). Vehicle (0.9% NaCl), 0.01-2.5 mg/kg dl-THP or l-THP, and 1 and 3 mg/kg diazepam were orally administered 45 minutes prior to test. Locomotor activity was measured based on crossings of infrared beams. […] Myorelaxant activity was measured using the horizontal wire test. In this test, mouse was lifted by the tail and allowed to grasp onto a horizontally strung wire (1 mm diameter, 20 cm long and placed 20 cm above the table) with their forepaws and released. For each mouse, the number of falls in 60 seconds was recorded.

Series [6] relates to rats. Conditions: PTSD rats, cited from earlier work.
Series [7] relates to mice. The note with it: 6.25, 12.5, and 18.75 mg/kg i.g.; cited from earlier work.
In series [8] the test system is rats. Conditions: 10, 20 and 40 mg/kg i.p., mediated by D2 receptors; cited from earlier work.
Series [9] deals with rats. Conditions: PTSD rats, cited from earlier work. This is another data set of the same source.
The subject of series [10] is amphetamine sensitized mice. Nature of the series: Test for antimanic-like behavior: locomotor activity of amphetamine sensitized mice. It is filed as in vivo. Conditions: 0.9 mg/kg amphetamine 10 minutes prior. The method, then:
Manic-like behavior was induced accomplished using the method of Pathak et al. (2015). Male ICR mice of 6 to 7 week were given daily injection of 1.8 mg/kg d-amphetamine (amphetamine-sensitized mice) or vehicle (0.9% NaCl vehicle treated, viz. mice unsensitized by amphetamine) for 5 days. Amphetamine was then withdrawn for 7 days. The locomotor activity test ‘ZIL-2’ apparatus (Beijing Institute of Materia Medica) employed consisted of a transparent plastic cylinder of 20 cm diameter×12 cm height equipped with six evenly spaced sets of infrared beam-photocell. The number of transitions made by the mouse across the beams as detected by the photocells was recorded automatically over a period of 5 minutes. The level of locomotor activity was scored by the number beam-crossings made by the mouse. In the test, amphetamine sensitized mice were randomly separated into groups (m=12-20 per group). The Amp group of mice received 0.9 mg/kg amphetamine injection 10 minutes prior to testing. The l-THP groups received oral l-THP (0.05, 0.1 and 0.2 mg/kg) 30 minutes prior to testing, and 0.9 mg/kg amphetamine injection 10 minutes prior to testing. The Veh mice received vehicle orally 30 minutes prior to testing and vehicle injection 10 minutes prior to testing.

Series [11] relates to rats. The note with it: cited from earlier work.
For series [12], the system named is female ICR mice. The series can be described thus: Crawley's sociability and preference for social novelty test (three-chamber box). Type of series: in vivo. Conditions: 45 minutes prior. As for the experimental part:
In Crawley's test, female ICR mice of 8 to 10 weeks were randomized into groups (n=12-20/group), and orally administered 45 minutes prior to testing with vehicle (0.9% NaCl), 0.1 mg/kg l-THP or 0.5 mg/kg l-THP. The test apparatus comprised a rectangular, three-chamber box. Each chamber was 19×45 cm, and the dividing walls between chambers were made of clear Plexiglas. The central chamber was connected to each side chamber with a removable wall. Two identical wire cylindrical containers with removable lids that were large enough to hold a single mouse each were placed vertically inside the apparatus, one in the middle of each side chamber. Each of these containers consisted of a cup made of metal wires to allow for air exchange between the interior and exterior of the cylinder but small enough to prevent direct physical interactions between an animal on the inside with one on the outside, and a removable lid. In the beginning of the test, the two cylindrical containers in the two side chambers were empty, and the subject mouse was placed at the center of the middle chamber for adaptation. After 5 minutes, one social-object mouse (stranger-1) was placed inside the cylinder in one of the side chambers. The placement of strange-1 was systematically changed between the two side chambers between trials. Then the walls separating the middle chamber from the two side chambers were removed to allow the subject mouse free access to all three chambers. In a first 10-minute session, the duration and number of direct contacts between the subject mouse and the container cup housing or not housing the stranger-1 mouse were recorded individually. At the end of this session, a second social-object mouse (stranger-2) was placed in the wire container cup that was empty during the first 10-minute session. Then the duration and number of direct contacts between the subject mouse and the two container cups holding stranger-1 mouse and stranger-2 mouse were recorded separately during a second 10-minute session. The first 10-minute session provided an estimate of the sociability of the subject mouse in terms of its preference if any to spend more time with the container holding the stranger-1 mouse compared to the empty container. The second 10-minute session provided an estimate of the preference of the subject mouse for social novelty in terms of its preference if any to associate with the container holding the novel stranger-2 mouse compared to the container holding the more familiar stranger-1 mouse (Moy et al 2004; Kaidanovich-Beilin et al., 2011).

Read-outs that look alike come from different tables or passages of the source. Bounds are passed on as bounds.

As for `COc1cc2c(cc1OC)[C@@H]1Cc3ccc(OC)c(OC)c3CN1CC2` (racemic) [dl-THP, dl-tetrahydropalmatine], in series [1], the “anxiolytic effects: entries into open arms without significant change in entries into closed arms” value is “selective anxiolytic effects”. Further, in [2] (1.0 mg/kg oral), the “time spent in the open arms (anxiolytic effect)” value (shortened to “time spent in the open arms”) is listed as “significant increase in time spent in the open arms”. In series [2] (2.0 mg/kg oral), the “time spent in the open arms” value is “significant increase in time spent in the open arms”. For the same molecule, the “lowest oral dose active for anxiolysis” value in series [2] is on record as ≥ 1.0 mg/kg. Also, in series [3], the “influence of flumazenil on antidepressant effect (immobility time)” value is “inhibition of the antidepressant effects”, the “lowest oral dose eliciting antidepressant effect based on immobility time” value is listed as ≥ 2.0 mg/kg and the “oral dose that significantly shortens immobility time (antidepressant effect)” value lay within 2.0 to 5.0 mg/kg.

In the case of `CN1C(=O)CN=C(c2ccccc2)c2cc(Cl)ccc21` [Diazepam], the “locomotor activity (crossings of infrared beams)” value in [4] was “significant decrease”. Also, the “anxiolysis (time spent in open arms)” value in [2] (diazepam 1 mg/kg) and in series [2] (diazepam 3 mg/kg) was “significant anxiolysis” each time. In addition, the “myorelaxant effect (number of falls in 60 seconds)” value in series [5] (3 mg/kg) is given as “significant (p<0.05) myorelaxant effect”.

`CN(C)CCCN1c2ccccc2CCc2ccccc21` [Imipramine]: the “oral dose that significantly shortens immobility time (antidepressant effect)” value in series [3] is reported as 30 mg/kg.

Regarding `COc1cc2c(cc1OC)[C@@H]1Cc3ccc(OC)c(OC)c3CN1CC2` [l-THP, levorotatory tetrahydropalmatine], the “anxiolytic effect based on the elevated plus-maze test” value in [6] (daily 50 mg/kg i.p.) is listed as “significant anxiolytic effect”; in [6] (daily 10 or 20 mg/kg i.p.), “not”. For the same molecule, the locomotor activity entry in series [7] is “did not affect locomotor activity”. Moreover, the “time spent in the open arms” value in [2] (0.1 mg/kg oral), in series [2] (0.5 mg/kg oral) and in [2] (2.5 mg/kg oral) was “significant increase in time spent in the open arms” throughout. Moreover, in series [2] (1.0 mg/kg p.o. 45 minutes prior plus flumazenil 1.25 mg/kg i.p. 15 minutes prior), the “influence of flumazenil on anxiolytic effect (time spent in open arms)” value is given as “inhibition of the anxiolytic effect”. Moreover, the “lowest oral dose active for anxiolysis” value in series [2] is ≥ 0.1 mg/kg. The antinociceptive effects entry in series [8] is on record as “dose-dependent antinociceptive effects”. The “antidepressant effect based on sucrose intake or immobility time in the forced swimming test” value is “significant antidepressant effect” in [9] (daily 50 mg/kg i.p.) and “not” in series [9] (daily 10 or 20 mg/kg i.p.). For the same molecule, the “level of locomotor activity relative to Amp mice (antimanic effect)” value in series [10] (0.05 mg/kg oral 30 minutes prior), in series [10] (0.1 mg/kg oral 30 minutes prior) and in [10] (0.2 mg/kg oral 30 minutes prior) was “significantly reduced the level locomotor activity” each time. For the same molecule, the locomotion entry in series [11] (3 mg/kg i.p.) is recorded as “failed to do so”; in series [11] (10 mg/kg i.p.) it was “inhibited locomotion”. For the same molecule, the “myorelaxant effect (number of falls in 60 seconds)” value is recorded as “significant (p<0.01) myorelaxant effect” in series [5] (male, ICR, mouse, in vivo, 45 min) and “did not induce any significant myorelaxant effect” in [5] (mouse, in vivo). Also, in [3], the “influence of flumazenil on antidepressant effect (immobility time)” value is reported as “inhibition of the antidepressant effects”. Moreover, the “lowest oral dose eliciting antidepressant effect based on immobility time” value in series [3] is listed as ≥ 0.5 mg/kg. In series [3], the “oral dose that significantly shortens immobility time (antidepressant effect)” value lay within 0.5 to 5.0 mg/kg. For the same molecule, the “preference for social novelty: stranger-2 vs familiar stranger-1 mouse” value in series [12] (0.1 mg/kg oral, p<0.001) is listed as “showed preference for the novel stranger-2 mouse”; in [12] (0.5 mg/kg oral, p<0.01) it was “showed preference for the novel stranger-2 mouse”. The “sociability: time with stranger-1 mouse container vs empty container” value in series [12] (0.1 mg/kg oral, p<0.001) is on record as “significant enhancement of sociability”; in [12] (0.5 mg/kg oral, p<0.01), “significant enhancement of sociability”.
